From US5464834A, “N-substituted N'-heterobicyclic piperazines having pharmaceutical activity” (Adir et Compagnie, priority 1992, dated 1995)
pKi: −log10 of the molar value. Read-outs that look alike come from different tables or passages of the source.

How the values were obtained:
5HT1A receptors [1] = biological target: T1, 5HT1A receptors (Rattus norvegicus, UniProt P19327); test: In vitro binding test, 5HT1A receptors ([3H]-8-OH-DPAT, hippocampus membranes); design: The hippocampus of the brains of decapitated rats was immediately frozen; from tissue; host or cells: hippocampus membranes of male Wistar rats; species or system rat (male Wistar)
T1 sequence (P19327 1-422): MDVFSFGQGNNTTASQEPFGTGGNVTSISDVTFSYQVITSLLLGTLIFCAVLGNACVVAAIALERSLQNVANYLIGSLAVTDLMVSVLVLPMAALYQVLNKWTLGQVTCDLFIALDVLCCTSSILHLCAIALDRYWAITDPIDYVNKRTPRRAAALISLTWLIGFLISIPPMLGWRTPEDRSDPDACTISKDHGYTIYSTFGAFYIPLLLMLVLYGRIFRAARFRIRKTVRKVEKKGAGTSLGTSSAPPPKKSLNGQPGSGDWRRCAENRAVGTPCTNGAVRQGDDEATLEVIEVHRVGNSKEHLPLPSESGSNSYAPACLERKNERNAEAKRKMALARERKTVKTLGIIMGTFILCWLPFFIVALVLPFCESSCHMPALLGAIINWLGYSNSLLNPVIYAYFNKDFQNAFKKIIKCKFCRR
Description: (§1) The tests were carried out using male Wistar rats weighing 200 to 220 g having free access to their food and to their drinking water in standard cages.
The hippocampus of the brains of decapitated rats was immediately frozen on solid carbon dioxide and then kept at -80° C. until preparation of the membranes. The tissue was homogenised at 4° C. in the appropriate buffer using a Polytron (Brinkman Instruments, Lucerne, Switzerland) and centrifuged at 20,000 revs/min.
Incubation was carried out for 30 minutes at 25° C. Non-specific binding was established by […] of 5HT. The tests were terminated by rapid filtration using a Brandel harvester through glass fibre filters pretreated with 0.1% polyethylene imine.
The IC50 values were determined in accordance with process 8 of Tallarida R. J. and Murray R. B., Manual of Pharmacological calculations with computer programs, Springer Verlag, New York, (1987).
The pKi was calculated in accordance with the following formula: [formula] wherein [L] is the concentration of the hot ligand (^[3] H-8-OH-DPAT, 0.4 nM) and Kd is the apparent dissociation constant determined from the saturation experiments.
The substances studied were dissolved in the incubation buffer.
Binding of 5HT1A receptors

5HT1A receptors [2] = biological target: T1, 5HT1A receptors; test: Flat body posture (FBP), agonist (alone) and antagonist (vs 8-OH-DPAT); assay type: in vivo, rat (male Wistar); design: from tissue; host or cells: whole living male Wistar rats (endogenous receptor); settings: for ED50: rat, sc
Description: as §1
(§2) The animals are isolated individually for the tests for hypothermia, corticosterone secretion and flat body posture, or combined in groups of three for the tailflick test.
(§3) The compounds to be studied were administered by the subcutaneous route (s.c.) 60 minutes before the beginning of the test, that is to say 30 minutes before the solvent (agonist responses) or the 8-OH-DPAT (antagonist responses).
(§4) In all of the tests the solvent is used in parallel as a control. The animals were left to rest in their cage during the period between the injections and the evaluation. For the agonist studies, the solvent was administered at 1 ml/kg s.c. 30 minutes before the beginning of the test. For the antagonist studies, doses of 8-OH-DPAT that induce sub-maximal responses were chosen, that is doses of 0.63, 0.16, 0.16 and 0.16 mg/kg s.c. for, respectively, the tail flick test, flat body posture test, corticosterone secretion test and hypothermia test.
(§5) The same animals were used to evaluate the influence of the compounds studied on FBP and on the determination of the plasma concentration of CS. All of the tests were carried out in the morning between 10.30 and 12.300 that is to say when the circadian levels of CS are lowest.
25 minutes after the treatment (that is to say 5 minutes before decapitation) the animals are observed in their cages and the presence or absence of FBP is noted.
(§6) The presence of FBP is defined by a characteristic posture of the animal. That posture is in the ventral decubitus position with the posterior limbs clearly extended. 5 minutes after the observation of FBP, the animals are decapitated and the blood from the trunk is collected in cooled tubes containing 50 μl of a 10% EDTA solution. After centrifugation at 4000 revs/min, the plasma is removed and stored at -30° C. until determination.
(§7) In general, after variance analysis, the results are subjected to the Dunett test. The results are taken as significant if p <0.05.
For the dose-response for the induction and inhibition of FBP, the ED50 values (doses at which 50% of the animals show a response) were calculated by the Litchfield and Wilcoxon method.
(§8) The doses of the compounds tested are all expressed in base terms. Unless specified otherwise, all of the compounds were dissolved in sterile water (to which if necessary a few drops of lactic acid were added) and administered at a volume of 1 ml/kg s.c.

5HT1A receptors [3] = biological target: T1, 5HT1A receptors; test: Body temperature / hypothermia, agonist (alone) and antagonist (vs 8-OH-DPAT); assay type: in vivo, rat (male Wistar); design: from tissue; host or cells: whole living male Wistar rats (endogenous receptor); settings: for ED50: rat, sc, read-out: HYPOTHERMIA ID50 (95% CL) + DPAT
Description: as §1, §2, §3, §4
The rats are immobilised and a lubricated digital thermometer (Termistroprobe of Testotherm, Basle, Switzerland) is inserted into the rectum to a depth of 5 cm. 30 seconds after insertion, the temperature is read on a digital scale. The percentage inhibition is calculated using the formula given above.
as §7, §8

5HT1A receptors [4] = biological target: T1, 5HT1A receptors; test: Corticosterone secretion (CS), agonist (alone) and antagonist (vs 8-OH-DPAT); assay type: in vivo, rat (male Wistar); design: from tissue; host or cells: whole living male Wistar rats (endogenous receptor); settings: for CS secretion MED alone: agonist test, compound alone s.c., minimum effective dose vs control; for ED50: rat, sc, read-out: CS secretion ID50 (95% CL) + DPAT
Description: as §1, §2, §3, §4, §5, §6
The CS was determined by a radio-competitive determination for a plasma protein that binds the CS: transcortine. The latter is obtained from a monkey serum. The separation of the CS-transcortine complexes from the free CS was carried out by means of a solution of dextran and active carbon. The detection limit was 50 pg/tube. The intra- and inter-experiment variations in determination were 5 and 15% respectively [cf Rivet J. M. et al, Eur. J. Pharmacol., 183,634-635 (1990)].
The CS base rates in the plasma never being zero, the following formula was used to calculated the percentage inhibition of plasma CS induced by 8-OH-DPAT: [formula]
as §7, §8

5HT1A receptors [5] = biological target: T1, 5HT1A receptors; test: Spontaneous tail flick (STF) test, agonist (alone) and antagonist (vs 8-OH-DPAT); assay type: in vivo, rat (male Wistar); design: from tissue; host or cells: whole living male Wistar rats (endogenous receptor)
Description: as §1, §2, §3, §4
The tail flicks were determined on the animals in horizontal opaque plastics cylinders with the tail of the animals hanging freely on the edge of the laboratory work bench. After allowing 5 minutes for adaptation, the number of movements made in 5 minutes was recorded. An STF is defined as being an elevation of the tail to a level higher than that of the axis of the body [Millan M. J. et al., J. Pharmacol. Exp. Ther., 256, 973-982 (1990)].
as §7, §8

5HT1A receptor = test: Overall in vivo agonist/antagonist behaviour at 5HT1A receptors; design: species or system rat (male Wistar); settings: Tables 1 and 2
5HT1A receptors [6] = biological target: T1, 5HT1A receptors; test: Drug discrimination (DD) 8-OH-DPAT; assay type: in vivo, rat (male Wistar); design: from tissue; host or cells: whole living male Wistar rats (endogenous receptor); settings: rat, sc
Description: as §1
Male rats are maintained at 85% of their normal body weight by means of food restriction. In soundproofed chambers the animals are trained to press a pedal to obtain food according to an FR10 procedure (Fixed Ratio 10; the food is supplied to the rat when it has pressed the lever 10 times).
Daily sessions of 15 minutes are preceded by an injection of solvent or of the training drug (0.31 mg/kg of 8-OH-DPAT, j.p.). The animal receives a pellet of food after pressing 10 times on the "solvent" or "drug" pedal according to the compound administered before the session.
After the learning period the animals are tested twice a week (Wednesday and Friday). On the other three days training sessions are carried out.
On the training days the rats are given either solvent or 8-OH-DPAT 15 minutes before being tested.
On the test days the rats receive the chemical substance 60 minutes before the session.
The capacity of the chemical substance administered to induce a response (pressing on the "solvent" or "drug" (8-OH-DPAT ) lever ) is recorded.
7 animals chosen at random are used for each substance and for each dose. During the test period, the lever on which the rat first presses 10 times is determined as the lever chosen--a food pellet is then delivered. That selected lever will be reinforced by the delivery of food up to the end of the test session. The percentage of animals selecting the "drug" lever at a particular dose is calculated. In addition, the total number of responses carried out on the two levers is expressed as a percentage of the number of responses carried out on the "solvent" lever obtained on the occasion of a preceding training session.
as §8

[7] = agonist test, compound alone s.c., read-out: FBP ED50 (95% CL) alone
[8] = antagonist test, s.c., vs 8-OH-DPAT 0.16 mg/kg s.c., read-out: FBP ID50 (95% CL) + DPAT
[9] = agonist test, compound alone s.c., minimum effective dose vs control
[10] = antagonist test, s.c., vs 8-OH-DPAT 0.16 mg/kg s.c.

SMILES | pKi (5HT1A receptors [1]) | ED50 (5HT1A receptors [2]; [7]) [mg/kg] | ED50 (5HT1A receptors [2]; [8]) [mg/kg] | HYPOTHERMIA MED alone (5HT1A receptors [3]; [9]) [mg/kg] | ED50 (5HT1A receptors [3]; [10]) [mg/kg] | CS secretion MED alone (5HT1A receptors [4]) [mg/kg] | ED50 (5HT1A receptors [4]; [10]) [mg/kg] | further results
c1cc2c(c(N3CCN(CCc4cc5ccsc5s4)CC3)c1)OCCO2 [Example 8, 4-(Benzodioxan-5-yl)-1-[2-(thieno[2,3-b]thiophen-2-yl)ethyl]piperazine] | 9.23 |  |  |  |  |  |  | 
c1cc2c(c(N3CCN(CCc4ccsc4)CC3)c1)OCCO2 [Example 11, 4-(Benzodioxan-5-yl)-1-[2-(thiophen-3-yl)ethyl]piperazine] | 8.92 | > 2.5 | < 2.5 | > 2.5 | 0.16 | > 2.5 | 2.5 | 
c1ccc(CCCN2CCN(c3cccc4c3OCCO4)CC2)cc1 [Example 12, 4-(Benzodioxan-5-yl)-1-(3-phenylpropyl)piperazine] |  | > 2.5 | < 2.5 | > 2.5 | 0.63 | > 2.5 | 2.5 | Ki (5HT1A receptors [1]; rat hippocampus, [3H]-8-OH-DPAT 0.4 nM, 30 min at 25° C, read-out: AFFINITY (pKi) (converted)): 1.7 nM
c1csc(CCN2CCN(c3cccc4c3OCCO4)CC2)c1 [Example 13, 4-(Benzodioxan-5-yl)-1-[2-(thiophen-2-yl)ethyl]piperazine] | 8.96 |  |  |  |  |  |  | 
O=C1CC2(CCCC2)CC(=O)N1CCCCN1CCN(c2ncccn2)CC1 [buspirone, reference compound] |  |  |  |  |  | 2.5 |  | ED50 (5HT1A receptors [2]; read-out: FBP ID50 (95% CL) + DPAT): > 10 mg/kg; % MPA (% maximum possible antagonism), FBP (5HT1A receptors [2]; vs 8-OH-DPAT 0.16 mg/kg s.c.): 0%; STFs MED alone (5HT1A receptors [5]; [9]): > 40.0 mg/kg; % MPA (% maximum possible antagonism), STFs (5HT1A receptors [5]; vs 8-OH-DPAT 0.63 mg/kg s.c.): 86%; behaviour at 5HT1A receptor (agonist/antagonist, in words) (5HT1A receptor): agonist behaviour; ED50 (5HT1A receptors [6]; read-out: DD 8-OH-DPAT ED50 (95% CL) alone): 1.35 mg/kg; ED50 (5HT1A receptors [6]; read-out: DD 8-OH-DPAT ID50 (95% CL) + DPAT): > 2.5 mg/kg; H[…] alone (5HT1A receptors [3]; [9]): 2.5 mg/kg; ED50 (5HT1A receptors [3]): > 10 mg/kg; % MPA (% maximum possible antagonism), HYPOTHERMIA (5HT1A receptors [3]; vs 8-OH-DPAT 0.16 mg/kg s.c.): 0%; ED50 (5HT1A receptors [4]): > 10 mg/kg; % MPA (% maximum possible antagonism), CS secretion (5HT1A receptors [4]; vs 8-OH-DPAT 0.16 mg/kg s.c.): 0%
